Where two headings read alike, the source gives them in different places.
Key:
[1] = target: GST-tagged K-Ras mutant / His-tagged hSOS1 (Homo sapiens, UniProt P01116); test: HTRF assay, K-Ras mutant / SOS1 interaction; type: binding; details: read-out: IC50 against mutant Kras
Procedure, shortened: (§1)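 GST-tagged K-Ras (mutant or wildtype) with anti-GST-Eu donor was mixed with His-hSOS1 and anti-6His-XL665 acceptor in HEPES pH 7.4 buffer with NaCl, DTT, BSA and Igepal. After ≥10 min, HTRF was read (ex 337 nm, em 620/665 nm); 665/620 ratios gave IC50 from duplicate dilution series.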

wildtype Kras / hSOS1 = target: T1, wildtype Kras / hSOS1 (Homo sapiens, UniProt P01116); test: HTRF assay, wildtype Kras / SOS1 interaction; type: binding; details: read-out: IC50 against wildtype Kras
T1 construct: made in house; host or cells: E. coli BL21 (DE3)
Procedure, shortened: as §1

[2] = compound nos. 102-196, general methodology of example 5
[3] = compound nos. 201-213, general methodology of example 5

GST-tagged K-Ras mutant / His-tagged hSOS1, sequence (P01116 whole entry G12D, form open): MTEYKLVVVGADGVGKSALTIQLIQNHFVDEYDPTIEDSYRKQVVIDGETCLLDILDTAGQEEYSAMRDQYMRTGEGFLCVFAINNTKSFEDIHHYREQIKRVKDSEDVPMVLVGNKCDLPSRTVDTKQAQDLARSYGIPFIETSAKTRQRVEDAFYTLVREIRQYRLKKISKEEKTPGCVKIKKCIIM
T1 sequence (P01116 1-188 isoform P01116-2): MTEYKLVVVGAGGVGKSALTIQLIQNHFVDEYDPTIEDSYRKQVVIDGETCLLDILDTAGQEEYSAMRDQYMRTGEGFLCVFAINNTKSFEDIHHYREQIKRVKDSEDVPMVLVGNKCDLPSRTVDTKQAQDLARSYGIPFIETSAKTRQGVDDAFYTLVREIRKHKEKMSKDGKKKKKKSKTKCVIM

Structure (SMILES) | IC50 ([1]; compound nos. 401-703) | IC50 (wildtype Kras / hSOS1; compound nos. 401-703) | other results
CN(C)CC1(COc2nc(N3CC4CCC(C3)N4)c3cc(Cl)c(-c4cccc5oc(N)nc45)c(F)c3n2)CC1 [Compound 692, 4-(4-(3,8-diazabicyclo-[3.2.1]-octan-3-yl)-6-chloro-2-((1-((dimethylamino)-methyl)cyclopropyl)meth-oxy)-8-fluoroquinazolin-7-yl)benzo[d]oxazol-2-amine] | < 500 nM | > 500 nM | 
Nc1nc2c(-c3c(Cl)cc4c(N5CCCCC(N)C5)nc(OC[C@@]56CCCN5C[C@H](F)C6)nc4c3F)ccc(F)c2s1 (stereo partly drawn) [Compound 543, 4-(4-(3-aminoazepan-1-yl)-6-chloro-8-fluoro-2-(((2R,7aS)-2-fluorotetra-hydro-1H-pyrrolizin-7a(5H)-yl)methoxy)quinazolin-7-yl)-7-fluorobenzo[d]thiazol-2-amine] | < 500 nM | > 500 nM | 
Fc1c(-c2cccc3cn[nH]c23)ccc2c(N3CC4CCC(C3)N4)nc(OC[C@@]34CCCN3C[C@H](F)C4)nc12 [Compound 657, 4-(3,8-diazabicyclo[3.2.1]-octan-3-yl)-8-fluoro-2-(((2R,7aS)-2-fluorotetra-hydro-1H-pyrrolizin-7a(5H)-yl)methoxy)-7-(1H-indazol-7-yl)quinazoline] | > 500 nM | > 500 nM | 
N#Cc1c(N)sc2c(F)ccc(-c3c(Cl)cc4c(N5CC6CCC(C5)N6C5CCOC5)nc(OC[C@@]56CCCN5C[C@H](F)C6)nc4c3F)c12 (stereo partly drawn) [Compound 605, 2-amino-4-(6-chloro-8-fluoro-2-(((2R,7aS)-2-fluoro-tetrahydro-1H-pyrrolizin-7a(5H)-yl)methoxy)-4-((1R,5S)-8-(tetrahydro-furan-3-yl)-3,8-diazabicyclo-[3.2.1]octan-3-yl)quinazolin-7-yl)-7-fluorobenzo[b]thio-phene-3-carbonitrile] | < 500 nM | > 500 nM | 
Nc1nc2c(-c3c(Cl)cc4c(N5CC6CCC(C5)N6)nc(OCC56CCCN5CCC6)nc4c3F)c(F)ccc2s1 [Compound 578, 4-(4-(3,8-diazabicyclo-[3.2.1]octan-3-yl)-6-chloro-8-fluoro-2-((tetrahydro-1H-pyrrolizin-7a(5H)-l)meth-oxy)quinazolin-7-yl)-5-fluorobenzo[d]thiazol-2-amine] | < 500 nM | > 500 nM | 
CN1CCC[C@H]1COc1nc(N2CCNCC(F)(F)C2)c2cc(Cl)c(-c3cccc4nc(N)n(C)c34)c(F)c2n1 [Compound 186, 7-(6-chloro-4-(6,6-difluoro-1,4-diazepan-1-yl)-8-fluoro-2-(((S)-1-methylpyrrolidin-2-yl)methoxy)quinazolin-7-yl)-1-methyl-1H-benzo[d]-imidazol-2-amine] |  |  | IC50 [1, 2]: > 500 nM; IC50 (wildtype Kras / hSOS1; [2]): > 500 nM
CN1CCC[C@H]1COc1nc(N2CCNCC(F)(F)C2)c2cc(Cl)c(-c3cccc4oc(O)nc34)c(F)c2n1 [Compound 176, 4-(6-chloro-4-(6,6-difluoro-1,4-diazepan-1-yl)-8-fluoro-2-(((S)-1-methylpyrrolidin-2-yl)methoxy)quinazolin-7-yl)benzo[d]oxazol-2-ol] |  |  | IC50 [1, 2]: > 500 nM; IC50 (wildtype Kras / hSOS1; [2]): > 500 nM
Nc1nc2c(-c3c(Cl)cc4c(N5CC6CC5CCN6)nc(OC[C@@]56CCCN5C[C@H](F)C6)nc4c3F)ccc(F)c2s1 (stereo partly drawn) [Compound 686, 4-(4-(2,6-diazabicyclo-[3.2.1]octan-6-yl)-6-chloro-8-fluoro-2-(((2R,7aS)-2-fluorotetrahydro-1H-pyrrol-izin-7a(5H)-yl)methoxy)-quinazolin-7-yl)-7-fluoro-benzo[d]thiazol-2-amine] | < 500 nM | > 500 nM | 
Fc1c(-c2cccc(-c3ccccc3)c2)c(Cl)cc2c(N3CCCCCC3)nc(OCC34CCCN3CCC4)nc12 [Compound 482, 7-([1,1′-biphenyl]-3-yl)-4-(azepan-1-yl)-6-chloro-8-fluoro-2-((tetrahydro-1H-pyrrolizin-7a(5H)-yl)meth-oxy)quinazoline] | > 500 nM | < 500 nM | 
N#CCN1C2CCC1CN(c1nc(OC[C@@]34CCCN3C[C@H](F)C4)nc3c(F)c(-c4ccc(F)c5sc(N)c(C#N)c45)c(Cl)cc13)C2 [Compound 570, 2-amino-4-(6-chloro-4-((1R,5S)-8-(cyanomethyl)-3,8-diazabicyclo[3.2.1]-octan-3-yl)-8-fluoro-2-(((2R,7aS)-2-fluorotetra-hydro-1H-pyrrolizin-7a(5H)-yl)methoxy)quinazolin-7-yl)-7-fluorobenzo[b]thio-phene-3-carbonitrile] | < 500 nM | > 500 nM | 
Nc1nc2c(-c3c(Cl)cc4c(N5CC6CCC(C5)N6)nc(OCC56CCCN5CCC6)nc4c3F)cc(F)cc2s1 [Compound 542, 4-(4-(3,8-diazabicyclo-[3.2.1]octan-3-yl)-6-chloro-8-fluoro-2-((tetrahydro-1H-pyrrolizin-7a(5H)-yl)meth-oxy)quinazolin-7-yl)-6-fluorobenzo[d]thiazol-2-amine] | < 500 nM | > 500 nM | 
Nc1nc2c(-c3c(Cl)cc4c(N5CCNCC(F)(F)C5)nc(OCC56CCCN5CCC6)nc4c3F)c(F)ccc2s1 [Compound 633, 4-(6-chloro-4-(6,6-difluoro-1,4-diazepan-1-yl)-8-fluoro-2-((tetrahydro-1H-pyrrol-izin-7a(5H)-yl)methoxy)-quinazolin-7-yl)-5-fluoro-benzo[d]thiazol-2-amine] | < 500 nM | > 500 nM | 
Nc1nc2c(-c3c(Cl)cc4c(N5C[C@H]6CC[C@@H](C5)N6)nc(OCC5(CN6CCCC6)CC5)nc4c3F)cccc2o1 [Compound 212, 4-(4-((1R,5S)-3,8-diaza-bicyclo[3.2.1]octan-3-yl)-6-chloro-8-fluoro-2-((1-(pyrrolidin-1-ylmethyl)-cyclopropyl)methoxy)quin-azolin-7-yl)benzo[d]oxazol-2-amine] |  |  | IC50 [1, 3]: < 1500 nM; IC50 (wildtype Kras / hSOS1; [3]): < 1500 nM
CN1CCC[C@H]1COc1nc(N2CCNCC(F)(F)C2)c2cc(Cl)c(-c3ccc(F)c4sc(N)nc34)c(F)c2n1 [Compound 104, 4-(6-chloro-4-(6,6-difluoro-1,4-diazepan-1-yl)-8-fluoro-2-(((S)-1-methylpyrrolidin-2-yl)methoxy)quinazolin-7-yl)-7-fluorobenzo[d]thiazol-2-amine] |  |  | IC50 [1, 2]: < 500 nM; IC50 (wildtype Kras / hSOS1; [2]): < 500 nM
N#CCCc1cc2c(N3CC4CCC(C3)N4)nc(OC[C@@]34CCCN3C[C@H](F)C4)nc2c(F)c1-c1cc(O)cc2ccccc12 [Compound 595, 3-(4-(3,8-diazabicyclo-[3.2.1]octan-3-yl)-8-fluoro-2-(((2R,7aS)-2-fluorotetra-hydro-1H-pyrrolizin-7a(5H)-yl)methoxy)-7-(3-hydroxynaphthalen-1-yl)-quinazolin-6-yl)propane-nitrile] | < 500 nM | > 500 nM | 

Second part, led by results:

IC50 ([1]; compound nos. 401-703) | IC50 (wildtype Kras / hSOS1; compound nos. 401-703) | Structure (SMILES) | other results
< 500 nM | > 500 nM | Nc1nc2c(-c3c(Cl)cc4c(N5CC6CCC(CC6)C5)nc(OC[C@@]56CCCN5C[C@H](F)C6)nc4c3F)ccc(F)c2s1 [Compound 690, 4-(4-(3-azabicyclo[3.2.2]-nonan-3-yl)-6-chloro-8-fluoro-2-(((2R,7aS)-2-fluorotetrahydro-1H-pyrrol-izin-7a(5H)-yl)methoxy)-quinazolin-7-yl)-7-fluoro-benzo[d]thiazol-2-amine] | 
< 500 nM | > 500 nM | Nc1nc2c(-c3c(Cl)cc4c(N5CCCCCCC5)nc(OC[C@@]56CCCN5C[C@H](F)C6)nc4c3F)ccc(F)c2s1 [Compound 667, 4-(4-(azocan-1-yl)-6-chloro-8-fluoro-2-(((2R,7aS)-2-fluorotetrahydro-1H-pyrrol-izin-7a(5H)-yl)methoxy)-quinazolin-7-yl)-7-fluoro-benzo[d]thiazol-2-amine] | 
< 500 nM | > 500 nM | CNCCN1[C@@H]2CC[C@H]1CN(c1nc(OCC34CCCN3CCC4)nc3c(F)c(-c4ccc(F)c5sc(N)nc45)c(Cl)cc13)C2 [Compound 656, 4-(6-chloro-8-fluoro-4-((1R,5S)-8-(2-(methyl-amino)-ethyl)-3,8-diaza-bicyclo[3.2.1]octan-3-yl)-2-((tetrahydro-1H-pyrrol-izin-7a(5H)-yl)methoxy)-quinazolin-7-yl)-7-fluoro-benzo[d]thiazol-2-amine] | 
< 500 nM | < 500 nM | NCC1C2CCC1CN(c1nc(OCC34CCCN3CCC4)nc3c(F)c(-c4ccc(F)c5sc(N)nc45)c(Cl)cc13)C2 [Compound 406, 4-(4-((1R,5S,8r)-8-(amino-methyl)-3-azabicyclo[3.2.1]-octan-3-yl)-6-chloro-8-fluoro-2-((tetrahydro-1H-pyrrolizin-7a(5H)-yl)meth-oxy)quinazolin-7-yl)-7-fluorobenzo[d]thiazol-2-amine] | 
> 500 nM | > 500 nM | Nc1c(Cl)cccc1-c1c(Cl)cc2c(N3CC4CCC(C3)N4)nc(OCC34CCCN3CCC4)nc2c1F [Compound 589, 2-(4-(3,8-diazabicyclo-[3.2.1]octan-3-yl)-6-chloro-8-fluoro-2-((tetrahydro-1H-pyrrolizin-7a(5H)-yl)meth-oxy)quinazolin-7-yl)-6-chloroaniline] | 
< 500 nM | < 500 nM | Nc1nc2c(-c3c(Cl)cc4c(N5CCCC(CO)CC5)nc(OC[C@@]56CCCN5C[C@H](F)C6)nc4c3F)ccc(F)c2s1 (stereo partly drawn) [Compound 485, (1-(7-(2-amino-7-fluoro-benzo[d]thiazol-4-yl)-6-chloro-8-fluoro-2-(((2R,7aS)-2-fluorotetra-hydro-1H-pyrrolizin-7a(5H)-yl)methoxy)quinazolin-4-yl)azepan-4-yl)methanol] | 
